These results are taken from patent US10300065B2, “Method of treating or prevention of atherothrombotic events in patients with history of myocardial infarction” (ASTRAZENECA AB, priority 2015, dated 2019).

Where two headings read alike, the source gives them in different places.

The assay concerns platelets. Briefly: Light transmittance aggregometry (LTA; ADP 20 uM), platelet function substudy. The format is cell-based, human. Conditions: for Emax: Homo sapiens, Platelet, mean (SD). The procedure: The pharmacokinetics (PK) and pharmacodynamics of the 60 mg bid dose had not previously been studied. […] 180 patients who had received >4 weeks of study medication had blood sampling in the morning pre-maintenance dose and again 2 h post-dose. All patients were receiving aspirin. […] Well-known VerifyNow® P2Y12 assay and light transmittance aggregometry (LTA; ADP 20 uM) were performed. Groups were compared using Kruskal-Wallis test with significance attached to P<0.01 to allow for multiple group comparisons.

Take `CCCSc1nc(N[C@@H]2C[C@H]2c2ccc(F)c(F)c2)c2nnn([C@@H]3C[C@H](OCCO)[C@@H](O)[C@H]3O)c2n1` [Ticagrelor, (1S,2S,3R,5S)-3-[7-{[(1R,2S)-2-(3,4-difluorophenyl)cyclopropyl]amino}-5-(propylthio)-3H-[1,2,3]-triazolo[4,5-d]pyrimidin-3-yl]-5-(2-hydroxyethoxy)cyclopentane-1,2-diol]: the “Platelet reactivity pre- and post-dose as measured by LTA” value (90 mg vs 60 mg) was “numerically but not significantly lower with 90 mg than 60 mg”. Also, the Emax by setting is: (2 h, ticagrelor 60 mg bid, 2 h post dose, read-out: LTA Max response (maximum % aggregation response) Post dose) 33%; (2 h, ticagrelor 90 mg bid, 2 h post dose, read-out: LTA Max response (maximum % aggregation response) Post dose) 29%; (ticagrelor 60 mg bid, pre dose, read-out: LTA Max response (maximum % aggregation response) Pre dose) 39%; (ticagrelor 90 mg bid, pre dose, read-out: LTA Max response (maximum % aggregation response) Pre dose) 36%.
